Tests used:
[1] = Tolerability and safety assessment (AEs/ADRs, CTCAE 5.0); assay type: in vivo, human
Experimental: Safety and tolerability assessments were conducted for all participants who received at least one dose of RAY1216, either alone or in combination with ritonavir, throughout the study. The safety of all participants was evaluated on the basis of clinical symptoms, vital signs, 12-lead ECG, laboratory tests, physical examinations, and the evaluation of adverse events (AEs). All AEs were documented and graded according to the Common Terminology Criteria for Adverse Events (CTCAE, ver. 5.0). The grading scale was as follows: grade 1 (mild), grade 2 (moderate), grade 3 (severe), grade 4 (life threatening), and grade 5 (death).

[2] = Preclinical toxicology, NOAEL in rats; assay type: in vivo; details: from rat NOAEL, at 60 kg body weight
CYP3A = details: in vitro CYP reaction phenotyping, preclinical; cited from earlier work
[3] = Exposure-response analysis of adverse events (logistic regression); parameters: species or system human
From the text: For safety analysis, we also employed an exposure-response analysis method that included four binary outcomes: any adverse drug reaction (ADR), hypertriglyceridemia, hyperuricemia, and elevated creatinine levels. The exposure levels were derived by simulating individual parameter estimates from a population PK model ([23]), which generated dense sampling drug concentration-time curves. The noncompartmental analysis was subsequently performed using the PKNCA package in R software ver. 4.3 to calculate the area under the concentration-time curve over 24 h (AUC0-24) using the trapezoidal method and the maximum blood drug concentration within 24 h (Cmax).
logit(P(Yi=1))=β0+β1⋅log(Xi)
In this context, Xi represents the exposure (AUC0-24 and Cmax) of the ith subject, β0 denotes the intercept, and β1 indicates the coefficient for exposure. P(Yi = 1) represents the probability of AE occurrence, with logit referring to the logistic transformation.

[4] = Food effect, 800 mg, Fast (N = 12)
[5] = Food effect, 800 mg, Fed (N = 12)

O=C(NC1CCCC1)C(=O)[C@H](C[C@@H]1CCNC1=O)NC(=O)[C@@H]1[C@H]2CCC[C@H]2CN1C(=O)[C@@H](NC(=O)C(F)(F)F)C1CCCCC1 [RAY1216, leritrelvir]
participants who experienced at least one adverse event (AE) ([1]; 37 of all 88 participants (RAY1216 or placebo)): 42%
ADR, n (%) [1, 4]: 2 (16.7) n (%)
AE, n (%) [1, 4]: 3 (25.0) n (%)
ALT elevated (ADR) [1, 4]: 0 n (%)
AST elevated (ADR) [1, 4]: 0 n (%)
Anemia (ADR) [1, 4]: 0 n (%)
Bilirubin elevated (ADR) [1, 4]: 0 n (%)
Diarrhea (ADR) [1, 4]: 0 n (%)
Fatigue (ADR) [1, 4]: 0 n (%)
Grade 2 ADRs [1, 4]: 1 (8.3) n (%)
Grade ≥3 AEs [1, 4]: 0 n (%)
Hypertriglyceridemia (ADR) [1, 4]: 0 n (%)
Hyperuricemia (ADR) [1, 4]: 0 n (%)
Leukopenia (ADR) [1, 4]: 1 (8.3) n (%)
Nausea (ADR) [1, 4]: 0 n (%)
Neutrophil decreased (ADR) [1, 4]: 1 (8.3) n (%)
Palpitations (ADR) [1, 4]: 0 n (%)
Serum creatinine elevated (ADR) [1, 4]: 0 n (%)
ADR, n (%) [1, 5]: 4 (33.3) n (%)
AE, n (%) [1, 5]: 5 (41.7) n (%)
ALT elevated (ADR) [1, 5]: 0 n (%)
AST elevated (ADR) [1, 5]: 0 n (%)
Anemia (ADR) [1, 5]: 0 n (%)
Bilirubin elevated (ADR) [1, 5]: 0 n (%)
Diarrhea (ADR) [1, 5]: 0 n (%)
Fatigue (ADR) [1, 5]: 0 n (%)
Grade 2 ADRs [1, 5]: 1 (8.3) n (%)
Grade ≥3 AEs [1, 5]: 0 n (%)
Hypertriglyceridemia (ADR) [1, 5]: 1 (8.3) n (%)
Hyperuricemia (ADR) [1, 5]: 0 n (%)
Leukopenia (ADR) [1, 5]: 0 n (%)
Nausea (ADR) [1, 5]: 0 n (%)
Neutrophil decreased (ADR) [1, 5]: 0 n (%)
Palpitations (ADR) [1, 5]: 0 n (%)
Serum creatinine elevated (ADR) [1, 5]: 2 (16.7) n (%)
participants reporting at least one ADR ([1]; MAD study with or without ritonavir, 9 out of 32 participants): 28.1%
ADR, n (%) ([1]; MAD, 400 mg TID (N = 6)): 2 (33.3) n (%)
AE, n (%) ([1]; MAD, 400 mg TID (N = 6)): 2 (33.3) n (%)
ALT elevated (ADR) ([1]; MAD, 400 mg TID (N = 6)): 0 n (%)
AST elevated (ADR) ([1]; MAD, 400 mg TID (N = 6)): 0 n (%)
Anemia (ADR) ([1]; MAD, 400 mg TID (N = 6)): 0 n (%)
Bilirubin elevated (ADR) ([1]; MAD, 400 mg TID (N = 6)): 0 n (%)
Diarrhea (ADR) ([1]; MAD, 400 mg TID (N = 6)): 0 n (%)
Fatigue (ADR) ([1]; MAD, 400 mg TID (N = 6)): 0 n (%)
Grade 2 ADRs ([1]; MAD, 400 mg TID (N = 6)): 0 n (%)
Grade ≥3 AEs ([1]; MAD, 400 mg TID (N = 6)): 0 n (%)
Hypertriglyceridemia (ADR) ([1]; MAD, 400 mg TID (N = 6)): 1 (16.7) n (%)
Hyperuricemia (ADR) ([1]; MAD, 400 mg TID (N = 6)): 0 n (%)
Leukopenia (ADR) ([1]; MAD, 400 mg TID (N = 6)): 0 n (%)
Nausea (ADR) ([1]; MAD, 400 mg TID (N = 6)): 0 n (%)
Neutrophil decreased (ADR) ([1]; MAD, 400 mg TID (N = 6)): 0 n (%)
Palpitations (ADR) ([1]; MAD, 400 mg TID (N = 6)): 0 n (%)
Serum creatinine elevated (ADR) ([1]; MAD, 400 mg TID (N = 6)): 0 n (%)
participants reporting at least one ADR ([1]; MAD, 400 mg TID group, two participants): 33.3%
participants reporting at least one ADR ([1]; SAD, 200 mg cohort, two participants): 33.3%
ADR, n (%) ([1]; SAD, 400 mg (N = 6)): 2 (33.3) n (%)
AE, n (%) ([1]; SAD, 400 mg (N = 6)): 2 (33.3) n (%)
ALT elevated (ADR) ([1]; SAD, 400 mg (N = 6)): 0 n (%)
AST elevated (ADR) ([1]; SAD, 400 mg (N = 6)): 0 n (%)
Anemia (ADR) ([1]; SAD, 400 mg (N = 6)): 0 n (%)
Bilirubin elevated (ADR) ([1]; SAD, 400 mg (N = 6)): 1 (16.7) n (%)
Diarrhea (ADR) ([1]; SAD, 400 mg (N = 6)): 0 n (%)
Fatigue (ADR) ([1]; SAD, 400 mg (N = 6)): 0 n (%)
Grade 2 ADRs ([1]; SAD, 400 mg (N = 6)): 0 n (%)
Grade ≥3 AEs ([1]; SAD, 400 mg (N = 6)): 0 n (%)
Hypertriglyceridemia (ADR) ([1]; SAD, 400 mg (N = 6)): 0 n (%)
Hyperuricemia (ADR) ([1]; SAD, 400 mg (N = 6)): 0 n (%)
Leukopenia (ADR) ([1]; SAD, 400 mg (N = 6)): 0 n (%)
Nausea (ADR) ([1]; SAD, 400 mg (N = 6)): 0 n (%)
Neutrophil decreased (ADR) ([1]; SAD, 400 mg (N = 6)): 0 n (%)
Palpitations (ADR) ([1]; SAD, 400 mg (N = 6)): 0 n (%)
Serum creatinine elevated (ADR) ([1]; SAD, 400 mg (N = 6)): 1 (16.7) n (%)
participants reporting at least one ADR ([1]; SAD, 400 mg cohort, two participants): 33.3%
ADR, n (%) ([1]; SAD, 800 mg (N = 6)): 0 n (%)
AE, n (%) ([1]; SAD, 800 mg (N = 6)): 1 (16.7) n (%)
ALT elevated (ADR) ([1]; SAD, 800 mg (N = 6)): 0 n (%)
AST elevated (ADR) ([1]; SAD, 800 mg (N = 6)): 0 n (%)
Anemia (ADR) ([1]; SAD, 800 mg (N = 6)): 0 n (%)
Bilirubin elevated (ADR) ([1]; SAD, 800 mg (N = 6)): 0 n (%)
Diarrhea (ADR) ([1]; SAD, 800 mg (N = 6)): 0 n (%)
Fatigue (ADR) ([1]; SAD, 800 mg (N = 6)): 0 n (%)
Grade 2 ADRs ([1]; SAD, 800 mg (N = 6)): 0 n (%)
Grade ≥3 AEs ([1]; SAD, 800 mg (N = 6)): 0 n (%)
Hypertriglyceridemia (ADR) ([1]; SAD, 800 mg (N = 6)): 0 n (%)
Hyperuricemia (ADR) ([1]; SAD, 800 mg (N = 6)): 0 n (%)
Leukopenia (ADR) ([1]; SAD, 800 mg (N = 6)): 0 n (%)
Nausea (ADR) ([1]; SAD, 800 mg (N = 6)): 0 n (%)
Neutrophil decreased (ADR) ([1]; SAD, 800 mg (N = 6)): 0 n (%)
Palpitations (ADR) ([1]; SAD, 800 mg (N = 6)): 0 n (%)
Serum creatinine elevated (ADR) ([1]; SAD, 800 mg (N = 6)): 0 n (%)
ADR, n (%) ([1]; SAD, 1,600 mg (N = 6)): 2 (33.3) n (%)
AE, n (%) ([1]; SAD, 1,600 mg (N = 6)): 2 (33.3) n (%)
ALT elevated (ADR) ([1]; SAD, 1,600 mg (N = 6)): 0 n (%)
AST elevated (ADR) ([1]; SAD, 1,600 mg (N = 6)): 0 n (%)
Anemia (ADR) ([1]; SAD, 1,600 mg (N = 6)): 0 n (%)
Bilirubin elevated (ADR) ([1]; SAD, 1,600 mg (N = 6)): 1 (16.7) n (%)
Diarrhea (ADR) ([1]; SAD, 1,600 mg (N = 6)): 0 n (%)
Fatigue (ADR) ([1]; SAD, 1,600 mg (N = 6)): 0 n (%)
Grade 2 ADRs ([1]; SAD, 1,600 mg (N = 6)): 0 (0.0) n (%)
Grade ≥3 AEs ([1]; SAD, 1,600 mg (N = 6)): 0 n (%)
Hypertriglyceridemia (ADR) ([1]; SAD, 1,600 mg (N = 6)): 1 (16.7) n (%)
Hyperuricemia (ADR) ([1]; SAD, 1,600 mg (N = 6)): 1 (16.7) n (%)
Leukopenia (ADR) ([1]; SAD, 1,600 mg (N = 6)): 0 n (%)
Nausea (ADR) ([1]; SAD, 1,600 mg (N = 6)): 0 n (%)
Neutrophil decreased (ADR) ([1]; SAD, 1,600 mg (N = 6)): 0 n (%)
Palpitations (ADR) ([1]; SAD, 1,600 mg (N = 6)): 0 n (%)
Serum creatinine elevated (ADR) ([1]; SAD, 1,600 mg (N = 6)): 0 n (%)
participants reporting at least one ADR ([1]; SAD, 1,600 mg cohort, two participants): 33.3%
participants reporting at least one ADR ([1]; SAD, 6 out of 32 participants): 18.8%
ADR, n (%) ([1]; SAD/DDI, 200 mg (N = 6)): 2 (33.3) n (%)
AE, n (%) ([1]; SAD/DDI, 200 mg (N = 6)): 2 (33.3) n (%)
ALT elevated (ADR) ([1]; SAD/DDI, 200 mg (N = 6)): 0 n (%)
AST elevated (ADR) ([1]; SAD/DDI, 200 mg (N = 6)): 0 n (%)
Anemia (ADR) ([1]; SAD/DDI, 200 mg (N = 6)): 0 n (%)
Bilirubin elevated (ADR) ([1]; SAD/DDI, 200 mg (N = 6)): 0 n (%)
Diarrhea (ADR) ([1]; SAD/DDI, 200 mg (N = 6)): 0 n (%)
Fatigue (ADR) ([1]; SAD/DDI, 200 mg (N = 6)): 0 n (%)
Grade 2 ADRs ([1]; SAD/DDI, 200 mg (N = 6)): 1 (16.7) n (%)
Grade ≥3 AEs ([1]; SAD/DDI, 200 mg (N = 6)): 0 n (%)
Hypertriglyceridemia (ADR) ([1]; SAD/DDI, 200 mg (N = 6)): 2 (33.3) n (%)
Hyperuricemia (ADR) ([1]; SAD/DDI, 200 mg (N = 6)): 0 n (%)
Leukopenia (ADR) ([1]; SAD/DDI, 200 mg (N = 6)): 0 n (%)
Nausea (ADR) ([1]; SAD/DDI, 200 mg (N = 6)): 0 n (%)
Neutrophil decreased (ADR) ([1]; SAD/DDI, 200 mg (N = 6)): 0 n (%)
Palpitations (ADR) ([1]; SAD/DDI, 200 mg (N = 6)): 0 n (%)
Serum creatinine elevated (ADR) ([1]; SAD/DDI, 200 mg (N = 6)): 0 n (%)
grade 3 or above AEs, withdrawal due to AEs, SAEs ([1]; all cohorts): No grade 3 or above AEs, participant withdrawal due to AEs, or SAEs occurred
participants reporting at least one ADR ([1]; food-effect study, RAY1216 alone, 5 out of 12 participants): 41.7%
participants reporting at least one ADR ([1]; food-effect study, RAY1216 alone, after meals, 4 out of 12): 33.3%
participants reporting at least one ADR ([1]; food-effect study, RAY1216 alone, fasting, 2 out of 12): 16.7%
human equivalent dose [2]: approximately 10,800 mg/day
primary metabolizing enzyme (CYP3A): CYP3A is the primary metabolizing enzyme
exposure-response relationship of ADRs, hypertriglyceridemia, hyperuricemia, elevated creatinine with exposure (AUC0-24, Cmax) [3]: no significant dose-response relationship

Source: publication PMC11881559 (Antimicrobial Agents and Chemotherapy, 2025)
